# In patent US8466132B2, “Substituted tetracycline compounds” (Paratek Pharmaceuticals, Inc., priority 2004, dated 2013):
# Key:
# Type in all cases: cell-based
# Set-up in all cases: key: Compounds which showed superior inhibition of S. aureus, S. pseumoniae and E. coli are indicated by “***,”; compounds which showed very good or good inhibition of S. aureus, S. pseumoniae and E. coli are indicated by “**” or “*” respectively; compounds which showed very good or good inhibition of S. aureus, S. pseumoniae and E. coli are indicated by “**” or “*” respectively
# Settings in all cases: broth microdilution in CAMHB, 35° C., approximately 18 hour
# S. pneumoniae 157E = assay: In vitro minimum inhibitory concentration (MIC) assay, S. pneumoniae
# Procedure: (§1) The following assay is used to determine the efficacy of the tetracycline compounds against common bacteria. 2 mg of each compound is dissolved in 100 μl of DMSO. The solution is then added to cation-adjusted Mueller Hinton broth (CAMHB), which results in a final compound concentration of 200 μg per ml. The tetracycline compound solutions are diluted to 50 μL volumes, with a test compound concentration of 0.098 μg/ml. Optical density (OD) determinations are made from fresh log-phase broth cultures of the test strains. Dilutions are made to achieve a final cell density of 1×10^6 CFU/ml. At OD=1, cell densities for different genera should be approximately:
# (§2) 50 μl of the cell suspensions are added to each well of microtiter plates. The final cell density should be approximately 5×10^5 CFU/ml. These plates are incubated at 35° C. in an ambient air incubator for approximately 18 hour. The plates are read with a microplate reader and are visually inspected when necessary. The MIC is defined as the lowest concentration of the tetracycline compound that inhibits growth.
# (§3) Table 3 gives the MIC (μg/mL) of selected substituted tetracycline compounds against S. aureus, S. pseuimoniae, and E. coli.
# S. aureus RN450 = assay: In vitro minimum inhibitory concentration (MIC) assay, S. aureus
# Procedure: as §1, §2, §3
# E. coli MG 1655 = assay: In vitro minimum inhibitory concentration (MIC) assay, E. coli
# Procedure: as §1, §2, §3
Median MIC for S. pneumoniae 157E (S. pneumoniae 157E),Median MIC for S. aureus RN450 (S. aureus RN450),Median MIC for E. coli MG 1655 (E. coli MG 1655),Compound
*,*,*,CN(C)c1cc(C(=O)N2CCCC2)c(O)c2c1C[C@H]1C[C@H]3[C@H](N(C)C)C(O)=C(C(N)=O)C(=O)[C@@]3(O)C(O)=C1C2=O
**,***,*,CN(C)c1cc(C(=O)NCC(C)(C)C)c(O)c2c1C[C@H]1C[C@H]3[C@H](N(C)C)C(O)=C(C(N)=O)C(=O)[C@@]3(O)C(O)=C1C2=O
***,***,*,CN(C)c1cc(-c2ccsc2)c(O)c2c1C[C@H]1C[C@H]3[C@H](N(C)C)C(O)=C(C(N)=O)C(=O)[C@@]3(O)C(O)=C1C2=O
***,***,*,CN(C)c1cccc(-c2cc(N(C)C)c3c(c2O)C(=O)C2=C(O)[C@]4(O)C(=O)C(C(N)=O)=C(O)[C@H](N(C)C)[C@@H]4C[C@@H]2C3)c1
*,*,*,CC(=O)NCCNC(=O)c1cc(N(C)C)c2c(c1O)C(=O)C1=C(O)[C@]3(O)C(=O)C(C(N)=O)=C(O)[C@@H](N(C)C)[C@@H]3C[C@@H]1C2
***,*,*,CN(C)c1cc(C(=O)NCCN)c(O)c2c1C[C@H]1C[C@H]3[C@H](N(C)C)C(O)=C(C(N)=O)C(=O)[C@@]3(O)C(O)=C1C2=O
***,***,*,CN(C)c1cc(-c2ccncc2)c(O)c2c1C[C@H]1C[C@H]3[C@H](N(C)C)C(O)=C(C(N)=O)C(=O)[C@@]3(O)C(O)=C1C2=O
*,*,*,CCCCNC(=O)c1cc(N(C)C)c2c(c1O)C(=O)C1=C(O)[C@]3(O)C(=O)C(C(N)=O)=C(O)[C@@H](N(C)C)[C@@H]3C[C@@H]1C2
*,*,*,CN(C)c1cc(C#CC(=O)O)c(O)c2c1C[C@H]1C[C@H]3[C@@H](N(C)C)C(O)=C(C(N)=O)C(=O)[C@@]3(O)C(O)=C1C2=O
*,*,*,CONC(=O)c1cc(N(C)C)c2c(c1O)C(=O)C1=C(O)[C@]3(O)C(=O)C(C(N)=O)=C(O)[C@@H](N(C)C)[C@@H]3C[C@@H]1C2
***,***,*,CN(C)c1ccc(-c2cc(N(C)C)c3c(c2O)C(=O)C2=C(O)[C@]4(O)C(=O)C(C(N)=O)=C(O)[C@@H](N(C)C)[C@@H]4C[C@@H]2C3)cc1
***,***,*,CN(C)c1cc(-c2cnccn2)c(O)c2c1C[C@H]1C[C@H]3[C@H](N(C)C)C(O)=C(C(N)=O)C(=O)[C@@]3(O)C(O)=C1C2=O
***,***,*,CN(C)c1cc(C#N)c(O)c2c1C[C@H]1C[C@H]3[C@@H](N(C)C)C(O)=C(C(N)=O)C(=O)C3(O)C(O)=C1C2=O (stereo partly drawn)
***,***,*,CN(C)c1cc(-c2cncnc2)c(O)c2c1C[C@H]1C[C@H]3[C@H](N(C)C)C(O)=C(C(N)=O)C(=O)[C@@]3(O)C(O)=C1C2=O
**,***,*,CN(C)c1cc(-c2nccs2)c(O)c2c1C[C@H]1C[C@H]3[C@H](N(C)C)C(O)=C(C(N)=O)C(=O)[C@@]3(O)C(O)=C1C2=O
**,***,*,CN(C)c1cc(-c2cc[nH]n2)c(O)c2c1C[C@H]1C[C@H]3[C@H](N(C)C)C(O)=C(C(N)=O)C(=O)[C@@]3(O)C(O)=C1C2=O

Median MIC for S. pneumoniae 157E (S. pneumoniae 157E),Median MIC for S. aureus RN450 (S. aureus RN450),Median MIC for E. coli MG 1655 (E. coli MG 1655),Compound
*,*,*,CC(=O)c1cc(N(C)C)c2c(c1O)C(=O)C1=C(O)[C@]3(O)C(=O)C(C(N)=O)=C(O)[C@H](N(C)C)[C@@H]3C[C@@H]1C2
***,***,*,CC(=O)Nc1ccc(-c2cc(N(C)C)c3c(c2O)C(=O)C2=C(O)[C@]4(O)C(=O)C(C(N)=O)=C(O)[C@@H](N(C)C)[C@@H]4C[C@@H]2C3)cn1
*,*,*,CN(C)c1cc(C(=O)N2CCCCC2)c(O)c2c1C[C@H]1C[C@H]3[C@H](N(C)C)C(O)=C(C(N)=O)C(=O)[C@@]3(O)C(O)=C1C2=O
**,**,*,CN(C)c1cc(-c2cccnc2)c(O)c2c1C[C@H]1C[C@H]3[C@H](N(C)C)C(O)=C(C(N)=O)C(=O)[C@@]3(O)C(O)=C1C2=O
***,***,*,CN(C)c1cc(-c2ccc(C#N)nc2)c(O)c2c1C[C@H]1C[C@H]3[C@H](N(C)C)C(O)=C(C(N)=O)C(=O)[C@@]3(O)C(O)=C1C2=O
*,*,*,COC(=O)CNC(=O)c1cc(N(C)C)c2c(c1O)C(=O)C1=C(O)[C@]3(O)C(=O)C(C(N)=O)=C(O)[C@@H](N(C)C)[C@@H]3C[C@@H]1C2
*,*,*,CCCN(CC)C(=O)c1cc(N(C)C)c2c(c1O)C(=O)C1=C(O)[C@]3(O)C(=O)C(C(N)=O)=C(O)[C@@H](N(C)C)[C@@H]3C[C@@H]1C2
*,*,*,CN(C)c1cc(-c2ccc(C(=O)O)s2)c(O)c2c1C[C@H]1C[C@H]3[C@H](N(C)C)C(O)=C(C(N)=O)C(=O)[C@@]3(O)C(O)=C1C2=O
**,**,*,CN(C)c1cc(-c2ncco2)c(O)c2c1C[C@H]1C[C@H]3[C@H](N(C)C)C(O)=C(C(N)=O)C(=O)[C@@]3(O)C(O)=C1C2=O
*,*,*,CN(C)c1cc(C(N)=O)c(O)c2c1C[C@H]1C[C@H]3[C@H](N(C)C)C(O)=C(C(N)=O)C(=O)[C@@]3(O)C(O)=C1C2=O
**,***,*,CN(C)c1cc(-c2cccc(C(N)=O)c2)c(O)c2c1C[C@H]1C[C@H]3[C@H](N(C)C)C(O)=C(C(N)=O)C(=O)[C@@]3(O)C(O)=C1C2=O
***,***,*,CN(C)c1cc(-c2ccccn2)c(O)c2c1C[C@H]1C[C@H]3[C@H](N(C)C)C(O)=C(C(N)=O)C(=O)[C@@]3(O)C(O)=C1C2=O
*,*,*,CN(C)c1cc(-c2cccc(C(=O)O)c2)c(O)c2c1C[C@H]1C[C@H]3[C@H](N(C)C)C(O)=C(C(N)=O)C(=O)[C@@]3(O)C(O)=C1C2=O
*,*,*,CCNC(=O)c1cc(N(C)C)c2c(c1O)C(=O)C1=C(O)[C@]3(O)C(=O)C(C(N)=O)=C(O)[C@@H](N(C)C)[C@@H]3C[C@@H]1C2
*,*,*,CNC(=O)c1cc(N(C)C)c2c(c1O)C(=O)C1=C(O)[C@]3(O)C(=O)C(C(N)=O)=C(O)[C@@H](N(C)C)[C@@H]3C[C@@H]1C2
*,**,*,CN(C)c1cc(C(=O)C(=O)O)c(O)c2c1C[C@H]1C[C@H]3[C@H](N(C)C)C(O)=C(C(N)=O)C(=O)[C@@]3(O)C(O)=C1C2=O
